What was measured:
[1] = test system: Pseudomonas fluorescens; assay: Additive compatibility with microbial growth (growth slope by OD 620 nm); format: cell-based; conditions: additive 0.01-5 %, exposed 4 hours at 16° C., then tryptic soy broth 30° C., slope compared to 0% sample
[2] = test system: Bacillus amyloliquefaciens; assay: as above; format: cell-based; conditions: additive 0.01-5 %, exposed 4 hours at 16° C., then tryptic soy broth 30° C., slope compared to 0% sample
[3] = test system: Powdery Mildew (Podosphaera xanthii); assay: Spray trial on pumpkin plants, Powdery Mildew infection; format: in vivo; conditions: in words
Description: Eight solutions were prepared as described in Table 5a. These solutions were sprayed on pumpkin plants showing no signs of Powdery Mildew (Podosphaera xanthii). […] Six of the solutions included methyl soyate.
Four applications were made over a month to the same pumpkin plants. At the end of the month, the infection rates of Powdery Mildew were evaluated by comparing to untreated pumpkin plants.

[4] = test system: Bacillus subtilis; assay: Additive compatibility with microbial growth (growth slope by OD 620 nm); format: cell-based; conditions: additive 0.01-5 %, exposed 4 hours at 16° C., then tryptic soy broth 30° C., slope compared to 0% sample
[5] = test system: Bacillus firmus; assay: as above; format: cell-based; conditions: additive 0.01-5 %, exposed 4 hours at 16° C., then tryptic soy broth 30° C., slope compared to 0% sample
[6] = test system: Downy Mildew (Plasmopara viticola); assay: Spray trial on first year grape vines, Downy Mildew infection; format: in vivo; conditions: in words
Description: Eight solutions were prepared as described in Table 2a. These solutions were sprayed on first year grape vines showing no signs of Downy Mildew (Plasmopara viticola). […] Six of the solutions included Additive Blend 1 (a 50:50 blend of POE 10 soybean oil and PEG 400 dioleate).
Four applications were made over a month to the same grape vines. At the end of the month, the infection rates of Downy Mildew were evaluated by comparing to untreated grape vines.
Eight solutions were prepared as described in Table 6a. These solutions were sprayed on first year grape vines showing no signs of Downy Mildew (Plasmopara viticola). […] Six of the solutions included PEG 400 dioleate.

Compound	Influence of additive on microbial growth slope (compatibility), Pseudomonas fluorescens [1]	Influence of additive on microbial growth slope (compatibility), Bacillus amyloliquefaciens [2]	Control of Powdery Mildew (lower %-Infection) when additive was added to Serifel Biofungicide spray solutions [3]	Influence of additive on microbial growth slope (compatibility), Bacillus subtilis [4]	Influence of additive on microbial growth slope (compatibility), Bacillus firmus [5]	Control of Downy Mildew (lower %-Infection) when additive was added to Serifel Biofungicide spray solutions [6]
Soya fatty acid methyl ester [ii-3]	N	E (E represents an Enhancing result)	improved control	N	N	
PEG 400 dioleate [v-3]	E (E represents an Enhancing result)	E (E represents an Enhancing result)		E (E represents an Enhancing result)	E (E represents an Enhancing result)	improved control
Soybean Oil POE 30 [vi-2]	N	S		S	N	
CCCCCCCC/C=C\CCCCCCCC(=O)OC [ii-4, Oleic acid methyl ester]	N	E (E represents an Enhancing result)		N	N	
Sorbitan monooleate POE 20 [xii-3]	N	N		N	S	
Butyl alcohol POP 31 POE 31 [vii-7]	N	N		N	N	
Sorbitan monolaurate POE 20 [xii-2]	S	S		S	S	
C12-C18 fatty acid methyl ester [ii-2]	N	N		N	S	
C8-C10 dimethyl amide [xv-2]	S	S		S	S	
